# Reference: PubChem BioAssay AID1259407 (Chemical Carcinogenesis Research Information System (CCRIS), 2018)
# Activity calls are given as the source filed them. The rule behind the calls is not given here.
# Test system: CCRIS mutagenicity, Ames/micronucleus/aberration tests
# Assay: CCRIS mutagenicity studies
# [1] = Test System: AMES SALMONELLA TYPHIMURIUM, Strain/Indicator: TA98, Metabolic Activation: NONE, Method: PREINCUBATION
# [2] = Test System: AMES SALMONELLA TYPHIMURIUM, Strain/Indicator: TA100, Metabolic Activation: NONE, Method: PREINCUBATION
# [3] = Test System: AMES SALMONELLA TYPHIMURIUM, Strain/Indicator: TA1535, Metabolic Activation: NONE, Method: PREINCUBATION
# [4] = Test System: AMES SALMONELLA TYPHIMURIUM, Strain/Indicator: TA98, Metabolic Activation: RAT, LIVER, S-9, AROCLOR 1254, Method: STANDARD PLATE
# [5] = Test System: AMES SALMONELLA TYPHIMURIUM, Strain/Indicator: TA100, Metabolic Activation: RAT, LIVER, S-9, AROCLOR 1254, Method: STANDARD PLATE
# [6] = Test System: AMES SALMONELLA TYPHIMURIUM, Strain/Indicator: TA100, Metabolic Activation: NONE, Method: STANDARD PLATE
# [7] = Test System: AMES SALMONELLA TYPHIMURIUM, Strain/Indicator: TA1535, Metabolic Activation: NONE, Method: STANDARD PLATE
# [8] = Test System: AMES SALMONELLA TYPHIMURIUM, Strain/Indicator: TA1535, Metabolic Activation: RAT, LIVER, S-9, AROCLOR 1254, Method: STANDARD PLATE
# [9] = Test System: AMES SALMONELLA TYPHIMURIUM, Strain/Indicator: TA1537, Metabolic Activation: NONE, Method: STANDARD PLATE
# [10] = Test System: AMES SALMONELLA TYPHIMURIUM, Strain/Indicator: TA1537, Metabolic Activation: RAT, LIVER, S-9, AROCLOR 1254, Method: STANDARD PLATE
# [11] = Test System: AMES SALMONELLA TYPHIMURIUM, Strain/Indicator: TA98, Metabolic Activation: NONE, Method: STANDARD PLATE
compound,measurement,setting,value
CC(=O)Nc1ccc(C)cc1,mutagenic call,"Test System: AMES SALMONELLA TYPHIMURIUM, Strain/Indicator: TA97, Metabolic Activation: HAMSTER, LIVER, S-9, AROCLOR 1254 (10 OR 30%), Method: PREINCUBATION",inactive; negative
same,mutagenic call,"Test System: AMES SALMONELLA TYPHIMURIUM, Strain/Indicator: TA97, Metabolic Activation: NONE, Method: PREINCUBATION",inactive; negative
same,mutagenic call,"Test System: AMES SALMONELLA TYPHIMURIUM, Strain/Indicator: TA97, Metabolic Activation: RAT, LIVER, S-9, AROCLOR 1254 (10 OR 30%), Method: PREINCUBATION",inactive; negative
same,mutagenic call,"Test System: AMES SALMONELLA TYPHIMURIUM, Strain/Indicator: TA98, Metabolic Activation: HAMSTER, LIVER, S-9, AROCLOR 1254 (10 OR 30%), Method: PREINCUBATION",inactive; negative
same,mutagenic call,[1],inactive; negative
same,mutagenic call,"Test System: AMES SALMONELLA TYPHIMURIUM, Strain/Indicator: TA98, Metabolic Activation: RAT, LIVER, S-9, AROCLOR 1254 (10 OR 30%), Method: PREINCUBATION",inactive; negative
same,mutagenic call,"Test System: AMES SALMONELLA TYPHIMURIUM, Strain/Indicator: TA100, Metabolic Activation: HAMSTER, LIVER, S-9, AROCLOR 1254 (10%), Method: PREINCUBATION",inactive; negative
same,mutagenic call,"Test System: AMES SALMONELLA TYPHIMURIUM, Strain/Indicator: TA100, Metabolic Activation: HAMSTER, LIVER, S-9, AROCLOR 1254 (30%), Method: PREINCUBATION",inactive; negative
same,mutagenic call,[2],inactive; negative
same,mutagenic call,"Test System: AMES SALMONELLA TYPHIMURIUM, Strain/Indicator: TA100, Metabolic Activation: RAT, LIVER, S-9, AROCLOR 1254 (10 OR 30%), Method: PREINCUBATION",inactive; negative
same,mutagenic call,"Test System: AMES SALMONELLA TYPHIMURIUM, Strain/Indicator: TA1535, Metabolic Activation: HAMSTER, LIVER, S-9, AROCLOR 1254 (10 OR 30%), Method: PREINCUBATION",inactive; negative
same,mutagenic call,[3],inactive; negative
same,mutagenic call,"Test System: AMES SALMONELLA TYPHIMURIUM, Strain/Indicator: TA1535, Metabolic Activation: RAT, LIVER, S-9, AROCLOR 1254 (10 OR 30%), Method: PREINCUBATION",inactive; negative
Clc1c2ccccc2cc2ccccc12,mutagenic call,[4],active; positive
same,mutagenic call,[5],active; positive
O=C1c2ccccc2C(=O)c2c(O)ccc(O)c21,mutagenic call,"End Point: IN VITRO CHROMOSOMAL ABERRATIONS, Test System: CHL CELLS, Metabolic Activation: NONE",active; positive (structural changes); authors report equivocal results for ploidy chang
same,mutagenic call,[1],inactive; negative
same,mutagenic call,"Test System: AMES SALMONELLA TYPHIMURIUM, Strain/Indicator: TA98, Metabolic Activation: RAT LIVER S-9, PHENOBARBITAL AND BETA-NAPHTHOFLAVONE, Method: PREINCUBATION",inactive; negative
same,mutagenic call,[4],inactive; negative
same,mutagenic call,"Test System: AMES SALMONELLA TYPHIMURIUM, Strain/Indicator: TA98, Metabolic Activation: RAT, LIVER, S-9, PCB, Method: PREINCUBATION",inactive; negative
same,mutagenic call,[2],inactive; negative
same,mutagenic call,[6],inactive; negative
same,mutagenic call,"Test System: AMES SALMONELLA TYPHIMURIUM, Strain/Indicator: TA100, Metabolic Activation: RAT LIVER S-9, PHENOBARBITAL AND BETA-NAPHTHOFLAVONE, Method: PREINCUBATION",inactive; negative
same,mutagenic call,[5],inactive; negative
same,mutagenic call,"Test System: AMES SALMONELLA TYPHIMURIUM, Strain/Indicator: TA100, Metabolic Activation: RAT, LIVER, S-9, PCB, Method: PREINCUBATION",inactive; negative
same,mutagenic call,"Test System: AMES SALMONELLA TYPHIMURIUM, Strain/Indicator: TA102, Metabolic Activation: NONE, Method: PREINCUBATION",active; positive
same,mutagenic call,"Test System: AMES SALMONELLA TYPHIMURIUM, Strain/Indicator: TA102, Metabolic Activation: RAT, LIVER, S-9, Method: PREINCUBATION",active; positive
same,mutagenic call,[3],inactive; negative
same,mutagenic call,[7],inactive; negative
same,mutagenic call,"Test System: AMES SALMONELLA TYPHIMURIUM, Strain/Indicator: TA1535, Metabolic Activation: RAT LIVER S-9, PHENOBARBITAL AND BETA-NAPHTHOFLAVONE, Method: PREINCUBATION",inactive; negative
same,mutagenic call,[8],inactive; negative
same,mutagenic call,"Test System: AMES SALMONELLA TYPHIMURIUM, Strain/Indicator: TA1537, Metabolic Activation: NONE, Method: PREINCUBATION",active; positive
same,mutagenic call,[9],active; positive
same,mutagenic call,"Test System: AMES SALMONELLA TYPHIMURIUM, Strain/Indicator: TA1537, Metabolic Activation: RAT LIVER S-9, PHENOBARBITAL AND BETA-NAPHTHOFLAVONE, Method: PREINCUBATION",active; positive
same,mutagenic call,[10],active; positive
same,mutagenic call,"Test System: AMES SALMONELLA TYPHIMURIUM, Strain/Indicator: TA1538, Metabolic Activation: NONE, Method: STANDARD PLATE",inactive; negative
same,mutagenic call,"Test System: AMES SALMONELLA TYPHIMURIUM, Strain/Indicator: TA1538, Metabolic Activation: RAT, LIVER, S-9, AROCLOR 1254, Method: STANDARD PLATE",inactive; negative
same,mutagenic call,"Test System: E.COLI, Strain/Indicator: WP2UVRA, Metabolic Activation: NONE, Method: PREINCUBATION",inactive; negative
same,mutagenic call,"Test System: E.COLI, Strain/Indicator: WP2UVRA, Metabolic Activation: RAT LIVER S-9, PHENOBARBITAL AND BETA-NAPHTHOFLAVONE, Method: PREINCUBATION",inactive; negative
CCOC(=O)/C=C\C(=O)OCC,mutagenic call,"Test System: MOUSE LYMPHOMA, Strain/Indicator: L5178Y (TK+/TK-), Metabolic Activation: NONE, Method: SUSPENSION/PLATE",active; positive
CC(=O)N(OC(=O)c1ccccc1)c1ccc2c(c1)Cc1ccccc1-2,mutagenic call,[11],active; positive
same,mutagenic call,[4],active; positive
O=Cc1ccc(C(=O)ON(OCc2ccccc2)C(=O)c2ccccc2)cc1,mutagenic call,[6],active; positive
same,mutagenic call,"Test System: AMES SALMONELLA TYPHIMURIUM, Strain/Indicator: TA100, Metabolic Activation: RAT, S-9, AROCLOR, Method: STANDARD PLATE",active; positive
Cc1ccc2ccc3c4ccccc4ccc3c2c1,mutagenic call,"Test System: AMES SALMONELLA TYPHIMURIUM, Strain/Indicator: TA100, Metabolic Activation: RAT, LIVER, MICROSOMES, 3-METHYLCHRYSENE, Method: STANDARD PLATE",inactive; negative
same,mutagenic call,"Test System: AMES SALMONELLA TYPHIMURIUM, Strain/Indicator: TA100, Metabolic Activation: RAT, LIVER, MICROSOMES, AROCLOR 1254, Method: STANDARD PLATE",active; positive
same,mutagenic call,"Test System: AMES SALMONELLA TYPHIMURIUM, Strain/Indicator: TA100, Metabolic Activation: RAT, LIVER, MICROSOMES, Method: STANDARD PLATE",inactive; negative
CNCCC=C1c2ccccc2CCc2ccccc21,mutagenic call,[11],inactive; negative
same,mutagenic call,[4],inactive; negative
same,mutagenic call,[6],inactive; negative
same,mutagenic call,[5],inactive; negative
same,mutagenic call,[7],inactive; negative
same,mutagenic call,[8],inactive; negative
same,mutagenic call,[9],inactive; negative
same,mutagenic call,[10],inactive; negative
CC(C)(C)NC[C@H](O)COc1nsnc1N1CCOCC1,mutagenic call,[11],inactive; negative
same,mutagenic call,[4],inactive; negative
same,mutagenic call,[6],inactive; negative
same,mutagenic call,[5],inactive; negative
Cc1cccc(C(=O)Cl)c1,mutagenic call,[1],inactive; negative
same,mutagenic call,"Test System: AMES SALMONELLA TYPHIMURIUM, Strain/Indicator: TA98, Metabolic Activation: RAT LIVER S-9, PCB, Method: PREINCUBATION",inactive; negative
same,mutagenic call,[2],inactive; negative
same,mutagenic call,"Test System: AMES SALMONELLA TYPHIMURIUM, Strain/Indicator: TA100, Metabolic Activation: RAT LIVER S-9, PCB, Method: PREINCUBATION",active; positive
same,mutagenic call,"Test System: AMES SALMONELLA TYPHIMURIUM, Strain/Indicator: TA104, Metabolic Activation: NONE, Method: PREINCUBATION",active; positive
same,mutagenic call,"Test System: AMES SALMONELLA TYPHIMURIUM, Strain/Indicator: TA104, Metabolic Activation: RAT LIVER S-9, PCB, Method: PREINCUBATION",active; positive
same,mutagenic call,"Test System: E.COLI, Strain/Indicator: WP2 UVRA, Metabolic Activation: NONE, Method: PREINCUBATION",active; positive
same,mutagenic call,"Test System: E.COLI, Strain/Indicator: WP2 UVRA, Metabolic Activation: RAT LIVER S-9, PCB, Method: PREINCUBATION",active; positive
